The source of these data is the supplement of paper PMC6331611.

For one test, the system named is RAW264.7. Nature of the test: cytotoxicity (LDH release relative to maximum lysis); higher = more toxic. As to conditions: 50 µM; 2 h. Background: LDH leaks from cells whose membrane has failed.
Test [1] deals with Salmonella enterica serovar Typhimurium SL1344.
Test [2] shares this test system. In words: intracellular MIC (10-fold luminescence reduction); higher = less potent. As to conditions: RAW264.7 macrophages.

Values after ≈ are worked out from the molar mass of the structure shown. Counter-ions that a name gives are not always drawn. Some results are limits rather than exact numbers.

For the molecule `CN1CCC(=C2c3ccccc3C=Cc3ccccc32)CC1` [CYPROHEPTADINE HYDROCHLORIDE], the cytotoxicity in the test on RAW264.7 amounted to 6.22%. For the same molecule, the MIC in test [1] (LPM pH 5.8), in test [1] (MHB) and in test [1] (MOPS glucose minimal medium) was more than 50 µM each time. Further, in test [2], the “intracellular MIC” value is more than 50 µM.

As to `Cc1nc2ccccc2n1Cc1ccc(Cl)cc1` [CHLORMIDAZOLE], in the test with RAW264.7, the cytotoxicity came to 12.9%. The MIC in test [1] (LPM pH 5.8), in test [1] (MHB) and in test [1] (MOPS glucose minimal medium) was more than 50 µM throughout. Moreover, the “intracellular MIC” value in test [2] is not above 0.78 µM.

In the test on RAW264.7, `CO/N=C(\C(=O)N[C@@H]1C(=O)N2C(C(=O)O)=C(CSc3nnnn3C)CS[C@H]12)c1csc(N)n1` [CEFMENOXIME HYDROCHLORIDE] showed a cytotoxicity of 8.15%. The MIC (in general, the smallest concentration in the dilution series that meets the test's criterion for growth inhibition) is 1.17 µM in test [1] (LPM pH 5.8), not above 0.78 µM in test [1] (MHB) and not above 0.78 µM in test [1] (MOPS glucose minimal medium). The “intracellular MIC” value in test [2] was 1.56 µM.

Molecule `CO/N=C(\C(=O)N[C@@H]1C(=O)N2C(C(=O)O)=C(COC(C)=O)CS[C@H]12)c1csc(N)n1` [CEFOTAXIME SODIUM] came in with a cytotoxicity with RAW264.7 of 7.17%. Besides, the MIC in test [1] (LPM pH 5.8), in test [1] (MHB) and in test [1] (MOPS glucose minimal medium) was not above 0.78 µM each time. Besides, the “intracellular MIC” value in test [2] is not above 0.78 µM.

In the test on RAW264.7, `C[C@H]1C[C@@H]2[C@H]([C@@H](O)C[C@@]3(C)[C@H]2CC[C@]3(O)C(=O)CO)[C@@]2(C)C=CC(=O)C=C12` [METHYLPREDNISOLONE] had a cytotoxicity of 8.21%. The MIC in test [1] (LPM pH 5.8), in test [1] (MHB) and in test [1] (MOPS glucose minimal medium) was more than 50 µM each time. In test [2], the “intracellular MIC” value is more than 50 µM.

As for `Cc1oc(=O)oc1CN1CCN(c2cc3c(cc2F)c(=O)c(C(=O)O)c2n3C(C)S2)CC1` (stereo not given) [PRULIFLOXACIN], the cytotoxicity in the test on RAW264.7 was determined as 13.2%. The MIC in test [1] (LPM pH 5.8), in test [1] (MHB) and in test [1] (MOPS glucose minimal medium) was not above 0.78 µM each time. Further, the “intracellular MIC” value in test [2] was not above 0.78 µM.

For the molecule `Nc1nc(/C(=C/CC(=O)O)C(=O)N[C@@H]2C(=O)N3C(C(=O)O)=CCS[C@H]23)cs1` [CEFTIBUTEN], the cytotoxicity with RAW264.7 came to 21%. In addition, the MIC in test [1] (LPM pH 5.8), in test [1] (MHB) and in test [1] (MOPS glucose minimal medium) was not above 0.78 µM throughout. In test [2], the “intracellular MIC” value is more than 50 µM.

In the case of `Cc1cc(CC(C)CC(C)(C)C)n(O)c(=O)c1` (stereo not given) [PIROCTONE OLAMINE], the cytotoxicity in the test with RAW264.7 is 20.8%. In addition, the MIC in test [1] (LPM pH 5.8), in test [1] (MHB) and in test [1] (MOPS glucose minimal medium) was not above 0.78 µM in each case. For the same molecule, the “intracellular MIC” value in test [2] is not above 0.78 µM.

In the test with RAW264.7, `CCCCC(=O)O[C@]1(C(=O)CO)[C@@H](C)C[C@H]2[C@@H]3CCC4=CC(=O)C=C[C@]4(C)[C@@]3(F)[C@@H](O)C[C@@]21C` [BETAMETHASONE VALERATE] displayed a cytotoxicity of 6.63%. Also, the MIC in test [1] (LPM pH 5.8), in test [1] (MHB) and in test [1] (MOPS glucose minimal medium) was more than 50 µM each time. Besides, the “intracellular MIC” value in test [2] worked out at 12.5 µM.

In turn, `CC[C@H]1OC(=O)[C@H](C)[C@@H](O[C@H]2C[C@@](C)(OC)[C@@H](O)[C@H](C)O2)[C@H](C)[C@@H](O[C@@H]2O[C@H](C)C[C@H](N(C)C)[C@H]2O)[C@](C)(O)C[C@@H](C)CN(C)[C@H](C)[C@@H](O)[C@]1(C)O` [AZITHROMYCIN] returned a cytotoxicity with RAW264.7 of 21.1%. In addition, the MIC in test [1] (LPM pH 5.8), in test [1] (MHB) and in test [1] (MOPS glucose minimal medium) was not above 0.78 µM throughout. The “intracellular MIC” value in test [2] is not above 0.78 µM.

`Cc1cc(C2CCCCC2)n(O)c(=O)c1` [CICLOPIROX OLAMINE]: the cytotoxicity with RAW264.7 came out at 15.5%. The minimal inhibitory concentration (MIC) was not above 0.78 µM in test [1] (LPM pH 5.8), more than 50 µM in test [1] (MHB) and more than 50 µM in test [1] (MOPS glucose minimal medium). The “intracellular MIC” value in test [2] was more than 50 µM.

As to `CCn1cc(C(=O)O)c(=O)c2cc(F)c(N3CCN(C)CC3)cc21` [PEFLOXACINE MESYLATE], the cytotoxicity with RAW264.7 turned out to be 20.7%. Also, the MIC in test [1] (LPM pH 5.8), in test [1] (MHB) and in test [1] (MOPS glucose minimal medium) was not above 0.78 µM each time. In addition, the “intracellular MIC” value in test [2] worked out at 1.56 µM.

For `C[C@H]1COc2c(N3CCN(C)CC3)c(F)cc3c(=O)c(C(=O)O)cn1c23` [LEVOFLOXACIN], the cytotoxicity in the test on RAW264.7 amounted to 21%. For the same molecule, the MIC in test [1] (LPM pH 5.8), in test [1] (MHB) and in test [1] (MOPS glucose minimal medium) was not above 0.78 µM in each case. In addition, the “intracellular MIC” value in test [2] is not above 0.78 µM.

The molecule `CO/N=C(\C(=O)N[C@@H]1C(=O)N2C(C(=O)O)=C(C[N+]3(C)CCCC3)CS[C@H]12)c1csc(N)n1` [CEFEPIME HYDROCHLORIDE] had a cytotoxicity in the test on RAW264.7 of 15.4%. Besides, the MIC in test [1] (LPM pH 5.8), in test [1] (MHB) and in test [1] (MOPS glucose minimal medium) was not above 0.78 µM in each case. Further, the “intracellular MIC” value in test [2] was not above 0.78 µM.

In the case of `CC(=O)[O][Hg][c]1ccccc1` [PHENYLMERCURIC ACETATE], the cytotoxicity in the test on RAW264.7 stood at 22.2%. Further, the MIC in test [1] (LPM pH 5.8), in test [1] (MHB) and in test [1] (MOPS glucose minimal medium) was not above 0.78 µM in each case. Also, the “intracellular MIC” value in test [2] is not above 0.78 µM.

With `COC(=O)N/N=C/c1c[n+]([O-])c2ccccc2[n+]1[O-]` [CARBADOX], in the test on RAW264.7, the cytotoxicity was determined as 15.6%. For the same molecule, the MIC was 25 µM (≈ 6.56 µg/mL) in test [1] (LPM pH 5.8), more than 50 µM in test [1] (MHB) and 50 µM (≈ 13.1 µg/mL) in test [1] (MOPS glucose minimal medium). Also, the “intracellular MIC” value in test [2] was not above 0.78 µM.
